Data on eight molecules can be found in ChEMBL document CHEMBL1127353, “Nonpeptidic inhibitors of human leukocyte elastase. 2. Design, synthesis, and in vitro activity of a series of 3-amino-6-arylopyridin-2-one trifluoromethyl ketones” (J Med Chem, 1994).

The structures appear in SMILES notation.

This assay concerns the target T1, Neutrophil elastase (Homo sapiens, UniProt P08246).
T1 sequence (P08246 whole entry): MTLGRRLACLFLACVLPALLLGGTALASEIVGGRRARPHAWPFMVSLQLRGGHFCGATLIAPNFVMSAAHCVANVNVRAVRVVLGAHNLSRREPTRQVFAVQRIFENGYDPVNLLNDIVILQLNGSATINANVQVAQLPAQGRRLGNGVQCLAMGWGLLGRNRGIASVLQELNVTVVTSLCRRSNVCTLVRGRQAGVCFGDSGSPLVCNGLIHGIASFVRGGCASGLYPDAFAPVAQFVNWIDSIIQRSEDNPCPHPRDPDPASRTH
The assay is described as follows: Tested for inhibitory activity against human leukocyte elastase(HLE) enzyme.
What is called Ki is the equilibrium dissociation constant of an inhibitor or competing ligand from its target. `CC(C)C(NC(=O)Cn1c(-c2ccc(Cl)cc2)ccc(NC(=O)OCc2ccccc2)c1=O)C(=O)C(F)(F)F` (stereo not drawn) gave a Ki of 6.6 nM.
Molecule `CC(C)C(NC(=O)Cn1ccc(-c2ccccc2)c(NC(=O)OCc2ccccc2)c1=O)C(=O)C(F)(F)F` (stereo not drawn) yielded a Ki of 320 nM.
`CC(C)C(NC(=O)Cn1c(-c2ccccc2Cl)ccc(NC(=O)OCc2ccccc2)c1=O)C(=O)C(F)(F)F` (stereo not drawn) came in with a Ki of 11 nM.
As for `CC(C)C(NC(=O)Cn1c(-c2cccc(OC(C)(C)C)c2)ccc(NC(=O)OCc2ccccc2)c1=O)C(=O)C(F)(F)F` (stereo not drawn), the affinity corresponds to a Ki of 4.4 nM.
Turning to `Cc1ccc(-c2ccc(NC(=O)OCc3ccccc3)c(=O)n2CC(=O)NC(C(=O)C(F)(F)F)C(C)C)cc1` (stereo not drawn), affinity was put at a Ki of 31 nM.
The molecule `CC(C)C(NC(=O)Cn1c(-c2cccnc2)ccc(NC(=O)OCc2ccccc2)c1=O)C(=O)C(F)(F)F` (stereo not drawn) registered a Ki of 9.1 nM.
In turn, `CC(C)C(NC(=O)Cn1c(Cc2ccccc2)ccc(NC(=O)OCc2ccccc2)c1=O)C(=O)C(F)(F)F` (stereo not drawn) had a Ki of 66 nM.
With `CC(C)C(NC(=O)Cn1c(-c2cccc(C(=O)O)c2)ccc(NC(=O)OCc2ccccc2)c1=O)C(=O)C(F)(F)F` (stereo not drawn) the figure was 32 nM.
